# Test results published in patent US4200645A, “Pyrrole derivatives” (Beecham Group Limited, priority 1977, dated 1980).
# Read-outs that look alike come from different tables or passages of the source.
# What was measured:
# [1] = tested on: stomachs; assay: gastric erosion test after oral dosing; format: in vivo, rats; settings: for No. of Animals Showing Erosions: groups of 10 rats, 4 hour contact time
# Procedure: b. Groups of 10 rats were starved overnight and then dosed orally with the test compound suspended in 0.7% methylcellulose. After a 4 hour contact time the animals were killed and the stomachs removed, inflated with 0.9% saline, cut open after 30 minutes and examined for erosions. The following results, expressed as the number of animals in each group showing damage, were obtained: […]
# [2] = tested on: phenylquinone induced writhing; assay: phenylquinone induced writhing test for analgesic activity; format: in vivo; settings: oral, mice; for ED50: Mus musculus
# Description: a. When tested on a conventional phenylquinone induced writhing test for analgesic activity, the compound of Example 1 and tolmetin produced the following ED50 values when administered orally to mice: […]
# [3] = tested on: rats; assay: toxicity observations during testing in rats; format: in vivo; settings: up to 100 mg/kg per day for 6 days
# [4] = tested on: carrageenin induced oedema; assay: carrageenin induced oedema test for anti-inflammatory activity; format: in vivo; settings: Rattus norvegicus; per oral in rats; read-out: dose at which active (anti-inflammatory)
# Procedure: c. When tested on a conventional carrageenin induced oedema test foranti-inflammatory activity, the compound of Example 1 was classed as active at 10 mg/kg per oral in rats (as compared to about 5 mg/kg for tolmetin).
# [5] = overt toxic effects during testing (Demonstration 2); format: in vivo
# Description: (§1) When tested on a conventional cotton pellet induced granuloma test the results shown hereafter were obtained. In these tests hydrocortisone (HC) was used as a positive control.
# [6] = tested on: cotton pellet induced granuloma; assay: cotton pellet induced granuloma test; format: in vivo
# Description: as §1
# [7] = in vivo
# [8] = J. Pharmacol. Exptl. Therap. 1973, 185, 127-138; cited from earlier work
smiles,measurement,setting,value
"CC(=O)CCc1ccc(C(=O)c2ccc(C)cc2)n1C [Example 1, 4-(1-Methyl-5-p-toluoyl-2-pyrryl)butan-2-one]",No. of Animals Showing Erosions,[1]; 30 mg/kg oral,0 No. of Animals
same,No. of Animals Showing Erosions,[1]; 90 mg/kg oral,1 No. of Animals
same,No. of Animals Showing Erosions,[1]; 270 mg/kg oral,1 No. of Animals
same,ED50,"[2]; Test A, read-out: ED50, Test A",6.7 mg/kg
same,ED50,"[2]; Test B, read-out: ED50, Test B",5.3 mg/kg
same,analgesic potency relative to tolmetin,[2]; from ED50 values,about half as potent as tolmetin
same,drug-induced lethalities,[3],No drug-induced lethalities have been observed
same,minimal effective dose,[4],10 mg/kg
"CC(=O)CCc1ccc(C(=O)c2ccc(Cl)cc2)n1C [Example 3, 4-(1-Methyl-5-p-chlorobenzoyl-2-pyrryl)butan-2-one]",drug-induced lethalities,[5]; during testing,no drug-induced lethalities were observed
same,overt toxic effects,[5]; during testing,not found to exhibit any overt toxic effects
same,body weight gain,[5]; in vivo,no reduction in body weight gain was observed
same,thymus weight,[5]; in vivo,no change in thymus weight was observed
same,Inhibition (cotton pellet granuloma),[6]; 10 mg/kg,42%
"CC(=O)CCc1ccc(C(=O)c2cccs2)n1C [Example 4, 4-(1-Methyl-5-thien-2'-oyl-2-pyrryl)butan-2-one]",drug-induced lethalities,[5]; during testing,no drug-induced lethalities were observed
same,body weight gain,[5]; in vivo,no reduction in body weight gain was observed
same,overt toxic effects,[5]; in vivo,not found to exhibit any overt toxic effects
same,thymus weight,[5]; in vivo,no change in thymus weight was observed
same,Inhibition (cotton pellet granuloma),[6]; 10 mg/kg,24%
"CC(=O)OC(C)CCc1ccc(C(=O)c2ccc(C)cc2)n1C (centres unmarked) [Example 6, 2-Acetoxy-4-(1-methyl-5-p-toluoyl-2-pyrryl)butane]",drug-induced lethalities,[5]; during testing,no drug-induced lethalities were observed
same,overt toxic effects,[5]; during testing,not found to exhibit any overt toxic effects
same,body weight gain,[5]; in vivo,no reduction in body weight gain was observed
same,thymus weight,[5]; in vivo,no change in thymus weight was observed
same,Inhibition (cotton pellet granuloma),[6]; 50 mg/kg,34%
"Cc1ccc(C(=O)c2ccc(CCC3(C)OCCO3)n2C)cc1 [Example 7, 2-Methyl-2-[2-(1-methyl-5-p-toluoyl-2-pyrryl)ethyl]-1,3-dioxolane]",drug-induced lethalities,[5]; during testing,no drug-induced lethalities were observed
same,overt toxic effects,[5]; during testing,not found to exhibit any overt toxic effects
same,body weight gain,[5]; in vivo,no reduction in body weight gain was observed
same,thymus weight,[5]; in vivo,no change in thymus weight was observed
same,Inhibition (cotton pellet granuloma),[6]; 50 mg/kg,43%
"C[C@]12CCC(=O)C=C1CC[C@@H]1[C@@H]2[C@@H](O)C[C@@]2(C)[C@H]1CC[C@]2(O)C(=O)CO [HC, hydrocortisone, reference compound]",Inhibition (cotton pellet granuloma),[6]; 10 mg/kg,43%
Cc1ccc(C(=O)c2ccc(CC(=O)O)n2C)cc1 [Tolmetin],No. of Animals Showing Erosions,[1]; 10 mg/kg oral,2 No. of Animals
same,No. of Animals Showing Erosions,[1]; 30 mg/kg oral,6 No. of Animals
same,No. of Animals Showing Erosions,[1]; 90 mg/kg oral,10 No. of Animals
same,gastric irritancy relative to the compound of Example 1,"[1]; oral, rats, ""probably at least""",at least 10 times
same,ED50,"[2]; Test A, read-out: ED50, Test A",4.3 mg/kg
same,ED50,"[2]; Test B, read-out: ED50, Test B",2.3 mg/kg
same,gastric irritancy,[7],causes gastric irritancy in test animals at doses not greatly exceeding the therapeutic dose
same,anti-inflammatory activity,[8],possess anti-inflammatory activity
same,minimal effective dose,[4],~5 mg/kg
